Laboratory results published in ChEMBL document CHEMBL5512598, “Current advances and development strategies of orally bioavailable PROTACs” (Eur J Med Chem, 2023).
pIC50: −log10 of the molar value. One block for each compound: values may come before it.

Legend:
[1] = Cmax in C57BL/6 mouse at 30 mg/kg, po by LC-MS/MS analysis; type: ADME, organism-based; settings: in vivo
[2] = Tmax in C57BL/6 mouse at 30 mg/kg, po by LC-MS/MS analysis; type: ADME, organism-based; settings: in vivo
[3] = Half life in C57BL/6 mouse at 30 mg/kg, po by LC-MS/MS analysis; type: ADME, organism-based; settings: in vivo
[4] = AUC (0 to t) in C57BL/6 mouse at 30 mg/kg, po by LC-MS/MS analysis; type: ADME, organism-based; settings: in vivo
[5] = Oral bioavailability in C57BL/6 mouse at 30 mg/kg by LC-MS/MS analysis; type: ADME, organism-based; settings: in vivo
[6] = Oral bioavailability in rat at 5 mg/kg by LC-MS/MS analysis; type: ADME, organism-based; settings: in vivo
[7] = Oral bioavailability in mouse at 5 mg/kg by LC-MS/MS analysis; type: ADME, organism-based; settings: in vivo
[8] = target: Protein cereblon/Leucine-rich repeat serine/threonine-protein kinase 2 (Homo sapiens, UniProt Q5S007+Q96SW2); assay: PROTAC activity at CRBN/LRRK2 in human MOLT-4 cells assessed as induction of LRRK2 degradation at 1 uM by Western blot analysis relative to control; type: cell-based
[9] = AUC in mouse at 30 mg/kg, po; type: ADME, organism-based; settings: in vivo
[10] = Half life in mouse at 30 mg/kg, po measured upto 24 hrs by LC-MS/MS analysis; type: ADME, organism-based; settings: in vivo
[11] = target: T1, Protein cereblon/Tyrosine-protein kinase BTK (Homo sapiens, UniProt Q06187+Q96SW2, C481S); assay: PROTAC activity at CRBN/BTK in human TMD8 cells assessed as protein degradation; type: cell-based
T1 sequence (Q06187 2-659 C481S limits assumed, stated change not applied): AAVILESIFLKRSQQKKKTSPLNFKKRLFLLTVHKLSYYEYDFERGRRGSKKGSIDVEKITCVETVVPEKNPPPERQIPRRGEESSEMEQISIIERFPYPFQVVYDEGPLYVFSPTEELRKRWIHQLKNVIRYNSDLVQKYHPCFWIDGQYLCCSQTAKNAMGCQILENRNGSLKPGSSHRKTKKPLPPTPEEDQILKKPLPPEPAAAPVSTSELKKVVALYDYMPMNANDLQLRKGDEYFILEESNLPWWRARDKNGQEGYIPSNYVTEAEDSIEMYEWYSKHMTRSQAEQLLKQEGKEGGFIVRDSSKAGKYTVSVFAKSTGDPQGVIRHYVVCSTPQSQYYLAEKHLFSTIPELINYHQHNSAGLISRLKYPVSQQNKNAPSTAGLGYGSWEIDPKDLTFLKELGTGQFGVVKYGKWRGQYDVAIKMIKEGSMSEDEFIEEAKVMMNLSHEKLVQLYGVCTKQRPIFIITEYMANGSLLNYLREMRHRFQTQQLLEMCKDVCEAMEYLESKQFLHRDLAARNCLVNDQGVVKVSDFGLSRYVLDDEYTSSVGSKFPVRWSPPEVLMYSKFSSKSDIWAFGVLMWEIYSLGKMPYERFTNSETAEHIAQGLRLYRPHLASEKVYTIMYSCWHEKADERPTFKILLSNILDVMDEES
T1 sequence (Q96SW2 whole entry, stated change not applied): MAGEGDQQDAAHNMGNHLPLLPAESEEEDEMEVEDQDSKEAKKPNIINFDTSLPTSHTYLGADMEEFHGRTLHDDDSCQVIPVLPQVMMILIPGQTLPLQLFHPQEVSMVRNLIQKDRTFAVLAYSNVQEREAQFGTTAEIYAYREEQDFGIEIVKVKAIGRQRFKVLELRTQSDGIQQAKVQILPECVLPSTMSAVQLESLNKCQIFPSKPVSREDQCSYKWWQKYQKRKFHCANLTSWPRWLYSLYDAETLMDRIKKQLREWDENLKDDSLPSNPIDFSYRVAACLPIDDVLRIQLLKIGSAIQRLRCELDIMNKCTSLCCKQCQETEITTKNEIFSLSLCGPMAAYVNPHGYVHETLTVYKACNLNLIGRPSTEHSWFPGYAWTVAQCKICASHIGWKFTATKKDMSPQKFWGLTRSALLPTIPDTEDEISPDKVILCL

[12] = tested on: Protein cereblon/Tyrosine-protein kinase BTK (Homo sapiens), Q06187+Q96SW2 [C481S]; assay: PROTAC activity at CRBN/BTK in human TMD8 cells assessed as maximal protein degradation relative to control; type: cell-based
[13] = target: von Hippel-Lindau disease tumor suppressor/Bromodomain-containing protein 9 (Homo sapiens, UniProt Q9H8M2+P40337); assay: PROTAC activity at VHL/BRD9 in human HeLa cells assessed as induction of protein degradation […]; type: cell-based
von Hippel-Lindau disease tumor suppressor/Bromodomain-containing protein 9, sequence (Q9H8M2 whole entry): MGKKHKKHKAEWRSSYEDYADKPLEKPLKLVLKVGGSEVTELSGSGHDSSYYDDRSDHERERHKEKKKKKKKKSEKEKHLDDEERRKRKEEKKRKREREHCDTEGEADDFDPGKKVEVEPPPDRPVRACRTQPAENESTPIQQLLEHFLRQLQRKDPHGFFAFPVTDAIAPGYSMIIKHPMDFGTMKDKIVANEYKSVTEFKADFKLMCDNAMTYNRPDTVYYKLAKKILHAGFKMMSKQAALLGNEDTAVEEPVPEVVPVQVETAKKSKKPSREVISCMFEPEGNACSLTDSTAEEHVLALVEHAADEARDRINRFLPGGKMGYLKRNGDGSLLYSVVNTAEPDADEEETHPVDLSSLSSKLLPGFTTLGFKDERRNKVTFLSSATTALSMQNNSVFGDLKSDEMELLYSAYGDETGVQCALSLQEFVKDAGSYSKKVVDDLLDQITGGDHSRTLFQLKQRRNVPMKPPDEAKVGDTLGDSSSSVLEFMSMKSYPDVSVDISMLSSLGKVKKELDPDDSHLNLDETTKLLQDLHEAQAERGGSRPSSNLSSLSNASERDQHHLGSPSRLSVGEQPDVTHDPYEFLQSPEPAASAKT
von Hippel-Lindau disease tumor suppressor/Bromodomain-containing protein 9, sequence (P40337 whole entry): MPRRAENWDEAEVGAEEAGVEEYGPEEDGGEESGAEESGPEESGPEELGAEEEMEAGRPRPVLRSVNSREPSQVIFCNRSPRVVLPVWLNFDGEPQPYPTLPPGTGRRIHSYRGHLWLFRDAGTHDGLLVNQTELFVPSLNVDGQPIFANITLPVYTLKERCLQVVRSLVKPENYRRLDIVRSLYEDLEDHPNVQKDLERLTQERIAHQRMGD

[14] = Oral bioavailability in Sprague-Dawley rat at 5 mg/kg incubated for 24 hrs by LC-MS/MS analysis; type: ADME, organism-based; settings: in vivo
[15] = Oral bioavailability in ICR mouse at 5 mg/kg by LC-MS/SM analysis; type: ADME, organism-based; settings: in vivo
[16] = Clearance in mouse at 10 mg/kg, po measured upto 24 hrs by LC-MS/MS analysis; type: ADME, organism-based; settings: in vivo
[17] = Clearance in Sprague-Dawley rat at 0.5 mg/kg, iv; type: ADME, organism-based; settings: in vivo
[18] = target: Voltage-gated inwardly rectifying potassium channel KCNH2 (Homo sapiens, UniProt Q12809); assay: Inhibition of hERG (unknown origin); type: toxicity
Cytochrome P450 3A4 = Cytochrome P450 3A4 (Homo sapiens, UniProt P08684); assay: Inhibition of CYP3A4 (unknown origin); type: ADME
Cytochrome P450 3A4, sequence (P08684 whole entry): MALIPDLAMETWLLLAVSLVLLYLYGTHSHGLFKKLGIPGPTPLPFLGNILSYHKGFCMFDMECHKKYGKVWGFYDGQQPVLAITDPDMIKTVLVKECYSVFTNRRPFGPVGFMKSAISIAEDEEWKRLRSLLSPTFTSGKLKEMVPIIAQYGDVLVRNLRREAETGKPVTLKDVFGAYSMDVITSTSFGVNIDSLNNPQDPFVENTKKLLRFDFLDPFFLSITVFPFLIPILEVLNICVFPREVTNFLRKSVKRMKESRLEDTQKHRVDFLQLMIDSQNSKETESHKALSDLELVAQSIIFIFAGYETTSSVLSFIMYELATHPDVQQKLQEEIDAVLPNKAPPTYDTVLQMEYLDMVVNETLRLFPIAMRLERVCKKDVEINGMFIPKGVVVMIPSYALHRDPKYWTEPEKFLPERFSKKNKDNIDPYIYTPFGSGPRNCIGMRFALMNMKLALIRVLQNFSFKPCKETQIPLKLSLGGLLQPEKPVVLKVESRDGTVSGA

Cytochrome P450 2C19 = Cytochrome P450 2C19 (Homo sapiens, UniProt P33261); assay: Inhibition of CYP2C19 (unknown origin); type: ADME
Cytochrome P450 2D6 = Cytochrome P450 2D6 (Homo sapiens, UniProt P10635); assay: Inhibition of CYP2D6 (unknown origin); type: ADME
Cytochrome P450 2D6, sequence (P10635 whole entry): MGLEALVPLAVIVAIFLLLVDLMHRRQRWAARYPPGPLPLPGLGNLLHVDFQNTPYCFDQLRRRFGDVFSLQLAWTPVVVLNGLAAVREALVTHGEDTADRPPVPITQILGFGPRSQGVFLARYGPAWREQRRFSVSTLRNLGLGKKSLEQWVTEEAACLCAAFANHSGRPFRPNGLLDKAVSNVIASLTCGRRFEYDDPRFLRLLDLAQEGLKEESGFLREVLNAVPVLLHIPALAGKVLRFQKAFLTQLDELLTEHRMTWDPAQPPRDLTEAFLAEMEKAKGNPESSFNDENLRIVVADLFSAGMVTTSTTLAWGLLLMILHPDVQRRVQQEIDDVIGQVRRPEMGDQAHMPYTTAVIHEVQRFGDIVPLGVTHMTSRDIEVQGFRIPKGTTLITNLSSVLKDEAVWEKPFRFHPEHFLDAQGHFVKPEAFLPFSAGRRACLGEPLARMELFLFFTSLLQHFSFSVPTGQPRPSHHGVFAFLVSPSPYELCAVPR

[19] = target: von Hippel-Lindau disease tumor suppressor/Polycomb protein EED (Homo sapiens, UniProt O75530+P40337); assay: PROTAC activity at VHL/EED in human DB cells assessed as degradation of EED protein expression incubated for 24 hrs by Western blotting analysis; type: cell-based
von Hippel-Lindau disease tumor suppressor/Polycomb protein EED, sequence (O75530 whole entry): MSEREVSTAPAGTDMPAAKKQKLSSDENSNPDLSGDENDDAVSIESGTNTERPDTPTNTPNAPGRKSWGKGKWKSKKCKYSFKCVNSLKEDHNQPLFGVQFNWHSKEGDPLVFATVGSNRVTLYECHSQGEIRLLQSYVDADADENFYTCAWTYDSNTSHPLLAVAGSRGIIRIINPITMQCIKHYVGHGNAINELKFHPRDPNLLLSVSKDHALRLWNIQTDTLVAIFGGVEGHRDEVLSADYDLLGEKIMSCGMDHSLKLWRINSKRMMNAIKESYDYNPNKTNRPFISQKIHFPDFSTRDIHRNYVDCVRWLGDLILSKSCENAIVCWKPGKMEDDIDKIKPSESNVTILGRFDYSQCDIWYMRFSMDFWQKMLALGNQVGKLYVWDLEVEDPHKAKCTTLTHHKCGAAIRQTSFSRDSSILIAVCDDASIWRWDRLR
von Hippel-Lindau disease tumor suppressor/Polycomb protein EED, sequence (P40337 whole entry): as the sequence (P40337 whole entry) above

[20] = target: von Hippel-Lindau disease tumor suppressor/Histone-lysine N-methyltransferase EZH2 (Homo sapiens, UniProt Q15910+P40337); assay: PROTAC activity against VHL/wild type EZH2 in human DB cells assessed as degradation of EZH2 protein expression incubated for 24 hrs by Western blot analysis; type: cell-based
von Hippel-Lindau disease tumor suppressor/Histone-lysine N-methyltransferase EZH2 (Homo sapiens, UniProt Q15910+P40337), sequence (Q15910 whole entry): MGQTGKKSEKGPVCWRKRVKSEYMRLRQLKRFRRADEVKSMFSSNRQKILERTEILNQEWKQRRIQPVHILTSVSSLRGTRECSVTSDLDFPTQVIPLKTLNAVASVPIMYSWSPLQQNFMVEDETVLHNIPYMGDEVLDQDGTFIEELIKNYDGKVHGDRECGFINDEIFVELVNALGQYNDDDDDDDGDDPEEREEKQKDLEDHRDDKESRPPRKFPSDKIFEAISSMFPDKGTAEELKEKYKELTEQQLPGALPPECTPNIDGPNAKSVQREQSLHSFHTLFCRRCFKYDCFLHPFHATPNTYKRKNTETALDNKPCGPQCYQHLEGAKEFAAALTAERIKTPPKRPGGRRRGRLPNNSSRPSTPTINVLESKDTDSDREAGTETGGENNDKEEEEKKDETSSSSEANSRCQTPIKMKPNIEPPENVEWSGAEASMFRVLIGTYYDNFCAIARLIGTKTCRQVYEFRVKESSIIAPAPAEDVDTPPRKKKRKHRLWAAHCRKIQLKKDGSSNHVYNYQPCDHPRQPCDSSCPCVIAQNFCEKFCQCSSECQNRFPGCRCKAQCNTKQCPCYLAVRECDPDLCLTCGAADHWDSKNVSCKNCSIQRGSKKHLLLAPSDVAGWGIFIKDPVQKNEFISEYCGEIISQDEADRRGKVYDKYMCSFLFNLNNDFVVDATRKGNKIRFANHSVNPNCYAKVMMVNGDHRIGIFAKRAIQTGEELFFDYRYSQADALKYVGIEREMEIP
von Hippel-Lindau disease tumor suppressor/Histone-lysine N-methyltransferase EZH2 (Homo sapiens, UniProt Q15910+P40337), sequence (P40337 whole entry): as the sequence (P40337 whole entry) above

[21] = target: von Hippel-Lindau disease tumor suppressor/Histone-lysine N-methyltransferase EZH2 (Homo sapiens, UniProt Q15910+P40337, Y641N); assay: PROTAC activity against VHL/EZH2 Y641N mutant in human DB cells assessed as degradation of EZH2 protein expression incubated for 24 hrs by Western blot analysis; type: cell-based
[22] = target: T1, Protein cereblon/Tyrosine-protein kinase BTK; assay: PROTAC activity at CRBN/BTK C481S mutant in human DLBCL cells assessed as degradation of BTK protein incubated for 4 hrs by HTRF assay; type: cell-based
[23] = Cmax in CD-1 mouse plasma at 10 mg/kg, po by LC-MS/MS analysis; type: ADME, organism-based
[24] = Half life in CD-1 mouse at 10 mg/kg, po measured for 24 hrs by LC-MS/MS analysis; type: ADME, organism-based; settings: in vivo
[25] = AUC (0 to t) in CD-1 mouse at 10 mg/kg, po measured for 24 hrs by LC-MS/MS analysis; type: ADME, organism-based; settings: in vivo

Compound: C[C@@H]1C=C2C=C[C@@H](C)[C@@H](CC[C@@H]3C[C@@H](O)CC(=O)O3)[C@@H]2[C@H](OC(=O)NCCOCCOCCNc2cccc3c2C(=O)N(C2CCC(=O)NC2=O)C3=O)C1 (stereo partly drawn)
Emax [8]: 44%

Compound: O=C1CC[C@H](N2Cc3cc(N4CCN(CC5CCN(c6ccc([C@@H]7c8ccc(O)cc8CC[C@@H]7c7ccccc7)cc6)CC5)CC4)ccc3C2=O)C(=O)N1 [VEPDEGESTRANT]
AUC [9]: 5720 ng·h/mL | half-life [10]: 28 h

Compound: Cc1ncsc1-c1ccc(CNC(=O)[C@@H]2C[C@@H](O)CN2C(=O)[C@@H](NC(=O)[C@H]2C[C@@H](NC(=O)c3ccc(-c4cnc(NCc5ccco5)n5cnnc45)cc3)C2)C(C)(C)C)cc1
DC50 [19]: 111 nM | DC50 [20]: 275 nM | DC50 [21]: 275 nM

Compound: CN1CCN([C@@H]2CCCN(c3cnc(C(N)=O)c(Nc4ccc(C5CCN(CC6CCN(c7ccc(C(=O)N[C@H]8CCC(=O)NC8=O)nc7)CC6)CC5)cc4)n3)C2)C1=O [NX-5948]
DC50 [22]: 0.32 nM

Now from value to compound, other results behind:

Cmax [1]: 3620 ng/mL | Tmax [2]: 2 h | half-life [3]: 21.9 h | AUC(0-t) [4]: 21300 ng·h/mL | bioavailability [5]: 15%
Compound: CNc1nc(Nc2ccc(C(=O)N3CCN(C[C@H]4CC[C@H](CSC(C)(C)[C@H](NC(=O)C5(F)CC5)C(=O)N5C[C@H](O)C[C@H]5C(=O)NCc5ccc(-c6scnc6C)cc5)CC4)CC3)cc2OC)ncc1Cl

bioavailability [6]: 23.8% | bioavailability [7]: 37.9%
Compound: N#Cc1ccc(O[C@H]2CC[C@H](NC(=O)c3ccc(N4CCC(CN5CCN(c6cc7c(cc6F)C(=O)N(C6CCC(=O)NC6=O)C7=O)CC5)CC4)nn3)CC2)cc1Cl (stereo partly drawn) [BAVDEGALUTAMIDE]

DC50 [11]: 0.5 nM | Emax [12]: 96%
Compound: CN1CCN([C@@H]2CCCN(c3cnc(C(N)=O)c(Nc4ccc(C5CCN(C[C@@H]6CCN(c7ccc8c(c7)C(=O)N(C7CCC(=O)NC7=O)C8=O)C6)CC5)cc4)n3)C2)C1=O (stereo partly drawn)

DC50 [13]: 11 nM | bioavailability [14]: 48% | bioavailability [15]: 100% | CL/F [16]: 30 mL/min/kg | clearance [17]: 74 mL/min/kg | pIC50 (Cytochrome P450 3A4): 5.25 | pIC50 (Cytochrome P450 2C19): 5.72 | pIC50 (Cytochrome P450 2D6): < 4.52
Compound: COc1cc(-c2cn(C)c(=O)c3cnccc23)cc(Cl)c1CN1CCC(C2CCN(C(=O)c3ccc(NC4CCC(=O)NC4=O)cc3C(F)(F)F)CC2)CC1 (stereo not drawn)
pIC50 [18]: 5.12

Cmax [23]: 3680 ng/mL | half-life [24]: 2.08 h | AUC(0-t) at 24 h [25]: 19700 ng·h/mL
Compound: COc1cc(N2CCC(N3CCN(CCC#Cc4cccc5c4CN(C4CCC(=O)NC4=O)C5=O)CC3)CC2)ccc1Nc1ncc(Cl)c(Nc2ccccc2P(C)(C)=O)n1 (stereo not drawn)
